Square brackets hold non-standard residues; d marks the D form. Peptide text beside a SMILES is read from it. * marks the point of attachment. ξ: configuration not given here. Cbz = O=C(OCc1ccccc1)*; ξL = CC(C)CC(N)C(=O)O; CH2Cl = ClC*
Experiments:
p130^fps = target: T1, p130^fps (UniProt P00530+P03323); experiment: Casein phosphorylation by p130fps immunoprecipitates; format: biochemical, Fujinami sarcoma virus (FSV); conditions: casein-phosphorylating activity of p130fps; concentration not given
T1 construct: anti-gag serum and Staphylococcus protein A suspension (for FSV-transformed cells); viral gag-derived N-terminal portion (natural gag-fps fusion); expressed in transfected cells; immune complex with anti-gag serum and Staphylococcus protein A
Protocol: In a related experiment, the capacity of Boc-LeuCH2 Br to inhibit phosphorylation of casein by p130^fps was determined. These tests were conducted substantially as described above, except 1 mg/mL casein was added to assay mixtures as a substrate, and reactions were terminated by addition of 2.5 mM unlabeled ATP and immediate cooling to 0°. Phosphorylated casein was separated from immunoprecipitate suspensions by centrifugation at 3,000 xg for 3 minutes. The resulting pellets were resuspended in 70 μL of 10 mM Hepes, pH 7.5, and 20 μL aliquots were pipetted onto filter paper squares as previously described. […]

[1] = tested on: A-431 plasma membrane extracts (EGF-mediated protein phosphorylation); experiment: Protein phosphorylation in solubilized A-431 plasma membrane extracts, with or without EGF; format: biochemical, human
Protocol: The capacity of certain peptide halomethyl ketones to inhibit protein phosphorylation is illustrated by Examples 1-8, below, in which solubilized plasma membranes prepared from A-431 human epidermoid carcinoma cells were incubated with [γ-^32 P] ATP in the presence of EGF.
A-431 human epidermoid carcinoma cells were grown in Dulbecco's modified Eagle's medium containing 5% fetal calf serum. Plasma membranes were isolated by a method substantially similar to that described by Thom et al., Biochem J. 168:187 (1977), and kept at -70°. Solubilization of plasma membranes was performed substantially as described by Cohen et al., J. Biol. Chem. 255:4834 (1980). In this procedure, 7.5 mg/mL protein was solubilized with 5% Triton X-100 (octylphenol), 10% glycerol, and 20 mM Hepes buffer (N-2-hydroxyethylpiperazine-N^1 -2-ethanesulfonic acid), pH 7.4. This mixture was incubated for 20 minutes at about 23°, followed by centrifugation at 100,000 xg for 60 minutes.
(§1) Protein phosphorylation assays were conducted substantially as described by Carpenter et al., J. Biol. Chem. 254:4884 (1979). Each assay mixture contained, in a final volume of 70 μL: 20 mM Hepes, pH 7.4, 0.01% bovine serum albumin (BSA), 15-150 μg protein in Triton extract, 100 ng EGF, 1 mM MnCl2 and 10-20 μM [γ-^32 P] ATP (2-4 μCi). Peptide halomethyl ketones were added as solutions in ethanol; an equivalent volume of ethanol was added to controls. Assay mixtures were incubated at about 23° for ten minutes, with or without added EGF. Mixtures were then held at 0° for ten minutes before initiation of phosphorylation by addition of 15 μM γ-^32 P) ATP (2 μCi). Reactions were terminated after 3 minutes at 0° by applying an aliquot of the assay mixture to a Whatman 3MM filter paper (2×2 cm), which was then suspended in ice-cold 10% trichloroacetic acid containing 10 mM pyrophosphate. This suspension was gently shaken for a period of 1 hour, during which the trichloroacetic acid/pyrophosphate mixture was changed three times. Finally, the filter papers were dried and radioactivity measured by scintillation counting.

lymphoma cell line YAC-1 = experiment: Tumor cell line growth inhibition, YAC-1; format: cell-based
Protocol: (§2) In this series of experiments, the tumor cell growth inhibitory capacity of various peptide halomethyl ketones was tested against lymphoma cell lines YAC-1 and MOLT-4, and against an erythroleukemia cell line, K-562. The lymphoma cell line YAC-1 is described by Kiessling, et al., Eur. J. Immunol. 5:112 (1975), and MOLT-4 is described by Minowada, et al., J. Natl. Cancer Inst. 49:891 (1972) and Nilsson, et al., Int. J. Cancer 15:321 (1975). The erythroleukemia cell line K-562 is described by Lozzio, et al., Leuk. Res. 3:363 (1979). In these experiments, cells were grown on standard media as 10 mL suspension cultures. Initial cell density was 10^5 cells/mL. At day 0, test compounds were introduced in ethanol; control cultures received an equal volume of ethanol. Cells were counted at the times indicated.

[2] = tested on: erythroleukemia cell line K-562; experiment: Tumor cell line growth inhibition, K-562; format: cell-based
Protocol: as §2

[3] = tested on: lymphoma cell line MOLT-4; experiment: Tumor cell line growth inhibition, MOLT-4; format: cell-based
Protocol: as §2

A-431 cell EGF receptor = target: T2, A-431 cell EGF receptor (Homo sapiens, UniProt P00533); experiment: Protein phosphorylation of A-431 cell membrane EGF receptors (intact membranes, EGF present); format: biochemical; conditions: 600 nmoles/mg protein, intact A-431 membranes
T2 construct: intact A-431 cell membranes were employed, rather than solubilized extracts; endogenous in cells; host or cells: A-431 human epidermoid carcinoma cells (plasma membranes)
Protocol: as §1
Assays were conducted substantially as described above, except intact A-431 cell membranes were employed, rather than solubilized extracts, and assay mixtures contained 1 mM ouabain. In these Examples, reactions were permitted to proceed for 6 minutes. This technique is substantially similar to that disclosed by Navarro et al., Biochemistry, 21:6138 (1982).

[4] = 400 nmol/mg protein, control 20.2
[5] = 400 nmol/mg protein, control 7.3

T2 sequence (P00533 25-1210): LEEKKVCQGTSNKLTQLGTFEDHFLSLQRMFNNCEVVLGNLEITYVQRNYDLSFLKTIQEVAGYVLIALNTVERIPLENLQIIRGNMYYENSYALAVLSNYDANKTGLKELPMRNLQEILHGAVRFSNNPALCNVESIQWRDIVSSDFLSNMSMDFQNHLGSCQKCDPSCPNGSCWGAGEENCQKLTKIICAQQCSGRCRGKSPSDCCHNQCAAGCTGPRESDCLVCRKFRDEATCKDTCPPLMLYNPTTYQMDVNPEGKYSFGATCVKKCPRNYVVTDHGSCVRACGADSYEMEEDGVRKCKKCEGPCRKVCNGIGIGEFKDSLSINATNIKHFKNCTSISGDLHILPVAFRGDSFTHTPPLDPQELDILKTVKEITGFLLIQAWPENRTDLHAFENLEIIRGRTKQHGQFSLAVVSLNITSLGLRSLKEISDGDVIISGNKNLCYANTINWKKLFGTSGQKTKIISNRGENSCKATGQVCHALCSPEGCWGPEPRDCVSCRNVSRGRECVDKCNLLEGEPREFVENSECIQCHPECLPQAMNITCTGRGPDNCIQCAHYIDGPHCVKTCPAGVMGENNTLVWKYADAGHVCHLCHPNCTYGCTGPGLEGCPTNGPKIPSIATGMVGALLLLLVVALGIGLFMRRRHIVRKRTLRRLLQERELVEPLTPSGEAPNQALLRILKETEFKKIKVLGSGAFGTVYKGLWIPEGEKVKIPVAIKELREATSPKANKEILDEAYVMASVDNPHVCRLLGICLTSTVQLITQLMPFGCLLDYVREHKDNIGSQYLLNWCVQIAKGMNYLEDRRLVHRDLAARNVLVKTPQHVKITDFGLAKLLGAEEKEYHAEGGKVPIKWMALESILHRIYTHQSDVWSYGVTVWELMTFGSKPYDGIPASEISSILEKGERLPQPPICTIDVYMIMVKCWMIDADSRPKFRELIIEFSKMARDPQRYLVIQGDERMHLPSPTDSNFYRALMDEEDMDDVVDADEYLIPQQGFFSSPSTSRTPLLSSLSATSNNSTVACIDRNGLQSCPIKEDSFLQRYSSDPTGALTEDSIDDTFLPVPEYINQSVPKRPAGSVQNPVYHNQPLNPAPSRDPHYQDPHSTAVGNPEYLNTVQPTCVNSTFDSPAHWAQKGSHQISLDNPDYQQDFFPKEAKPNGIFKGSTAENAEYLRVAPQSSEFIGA

SMILES: CC(=O)NC(Cc1ccccc1)C(=O)NC(CCC(=O)O)C(=O)NC(C)C(=O)NC(CC(C)C)C(=O)CCl (stereo not drawn) [Ac-Phe-Glu-Ala-LeuCH2 Cl] (Ac-FEAL-CH2Cl; configuration not given here)
- Percent Inhibition (p130^fps): -1%

SMILES: CC(=O)N[C@@H](Cc1ccccc1)C(=O)NCC(=O)N[C@@H](C)C(=O)N[C@@H](CC(C)C)C(=O)CCl [Ac-Phe-Gly-Ala-LeuCH2 Cl] (Ac-FGAL-CH2Cl)
- % inhibition, EGF Added ([1]; 400 nmol/mg protein): 59%
- EGF Added (pmol 32P incorporated/min/mg protein) [1, 4]: 8.3 pmol^32 P incorporated/min/mg
- % inhibition, No EGF Added ([1]; 400 nmol/mg protein): 29%
- No EGF Added (pmol 32P incorporated/min/mg protein) [1, 5]: 5.2 pmol^32 P incorporated/min/mg
- % Growth Relative to Control Cultures (lymphoma cell line YAC-1; 0.4 μg/mL, day 1): 80%
- % Growth Relative to Control Cultures (lymphoma cell line YAC-1; 0.4 μg/mL, day 2): 91%
- % Growth Relative to Control Cultures (lymphoma cell line YAC-1; 10. μg/mL, day 1): 78%
- % Growth Relative to Control Cultures (lymphoma cell line YAC-1; 10. μg/mL, day 2): 59%
- % Growth Relative to Control Cultures (lymphoma cell line YAC-1; 10. μg/mL, day 3): 43%
- % Growth Relative to Control Cultures (lymphoma cell line YAC-1; 10. μg/mL, day 4): 24%
- % Growth Relative to Control Cultures ([2]; 0.4 μg/mL, day 1): 81%
- % Growth Relative to Control Cultures ([2]; 0.4 μg/mL, day 3): 85%
- % Growth Relative to Control Cultures ([2]; 0.4 μg/mL, day 7): 84%
- % Growth Relative to Control Cultures ([2]; 2.0 μg/mL, day 4): 79%
- % Growth Relative to Control Cultures ([2]; 10. μg/mL, day 2): 77%
- % Growth Relative to Control Cultures ([2]; 10. μg/mL, day 3): 87%
- % Growth Relative to Control Cultures ([2]; 10. μg/mL, day 7): 47%
- % Growth Relative to Control Cultures ([3]; 0.4 μg/mL, day 1): 50%
- % Growth Relative to Control Cultures ([3]; 0.4 μg/mL, day 4): 72%
- % Growth Relative to Control Cultures ([3]; 0.4 μg/mL, day 7): 66%
- % Growth Relative to Control Cultures ([3]; 2.0 μg/mL, day 4): 87%
- % Growth Relative to Control Cultures ([3]; 10. μg/mL, day 7): 88%

SMILES: CC(=O)NC(Cc1ccccc1)C(=O)NCC(=O)NC(CCC(=O)O)C(=O)NC(CC(C)C)C(=O)CCl (stereo not drawn) [Ac-Phe-Gly-Glu-LeuCH2 Cl] (Ac-FGEL-CH2Cl; configuration not given here)
- Percent Inhibition (p130^fps): 0%

SMILES: CC(C)[C@H](NC(=O)OC(C)(C)C)C(=O)CCl [Boc-ValCH2 Cl]
- % inhibition, EGF Added ([1]; 477 nmol/mg protein): 25%
- EGF Added (pmol 32P incorporated/min/mg protein) ([1]; 477 nmol/mg protein, control 96.2): 72.2 pmol^32 P incorporated/min/mg
- No EGF Added (pmol 32P incorporated/min/mg protein) ([1]; 477 nmol/mg protein, control 21.6): 20.3 pmol^32 P incorporated/min/mg

SMILES: CC(C)C[C@H](NC(=O)[C@H](C)NC(=O)CNC(=O)[C@H](Cc1ccccc1)NC(=O)OCc1ccccc1)C(=O)CCl [Z--Phe-Gly-Ala-LeuCH2 Cl, Z-Phe-Gly-Ala-LeuCH2 Cl] (Cbz-FGAL-CH2Cl)
- Percent Inhibition (p130^fps): 27%

SMILES: C[C@H](NC(=O)CNC(=O)[C@H](Cc1ccccc1)NC(=O)OCc1ccccc1)C(=O)N[C@@H](Cc1ccc(O)cc1)C(=O)CCl [Z--Phe-Gly-Ala-TyrCH2 Cl, Z-Phe-Gly-Ala-TyrCH2 Cl] (Cbz-FGAY-CH2Cl)
- % inhibition (A-431 cell EGF receptor): 67%

SMILES: CC(C)CC(NC(=O)C(CC(C)C)NC(=O)CNC(=O)C(Cc1ccccc1)NC(=O)OCc1ccccc1)C(=O)CCl (stereo not drawn) [Z--Phe-Gly-Leu-LeuCH2 Cl, Z-Phe-Gly-Leu-LeuCH2 Cl] (Cbz-FGLL-CH2Cl; configuration not given here)
- Percent Inhibition (p130^fps): 44%

SMILES: CC(C)CC(NC(=O)C(CCCCN)NC(=O)CNC(=O)C(Cc1ccccc1)NC(=O)OCc1ccccc1)C(=O)CCl (stereo not drawn) [Z--Phe-Gly-Lys-LeuCH2 Cl, Z-Phe-Gly-Lys-LeuCH2 Cl] (Cbz-FGKL-CH2Cl; configuration not given here)
- Percent Inhibition (p130^fps): 48%

SMILES: CC(C)C[C@H](NC(=O)[C@H](Cc1ccccc1)NC(=O)CNC(=O)[C@H](Cc1ccccc1)NC(=O)OCc1ccccc1)C(=O)CCl [Z--Phe-Gly-Phe-LeuCH2 Cl, Z-Phe-Gly-Phe-LeuCH2 Cl] (Cbz-FGFL-CH2Cl)
- Percent Inhibition (p130^fps): 34%

SMILES: CC(C)C[C@H](NC(=O)[C@@H]1CCCN1C(=O)CNC(=O)[C@H](Cc1ccccc1)NC(=O)OCc1ccccc1)C(=O)CCl [Z--Phe-Gly-Pro-LeuCH2 Cl] (Cbz-FGPL-CH2Cl)
- Percent Inhibition (p130^fps): 7%

SMILES: CC(C)CC(NC(=O)[C@H](C)NC(=O)[C@H](CC(C)C)NC(=O)[C@H](Cc1ccccc1)NC(=O)OCc1ccccc1)C(=O)CCl (stereo partly drawn) [Z--Phe-Leu-Ala-LeuCH2 Cl, Z-Phe-Leu-Ala-LeuCH2 Cl] (Cbz-FLA[ξL]-CH2Cl)
- Percent Inhibition (p130^fps): 36%

SMILES: CC(C)CC(NC(=O)C(C)NC(=O)C(CCCCN)NC(=O)C(Cc1ccccc1)NC(=O)OCc1ccccc1)C(=O)CCl (stereo not drawn) [Z--Phe-Lys-Ala-LeuCH2 Cl, Z-Phe-Lys-Ala-LeuCH2 Cl] (Cbz-FKAL-CH2Cl; configuration not given here)
- Percent Inhibition (p130^fps): 11%

SMILES: CC(C)C[C@H](NC(=O)[C@H](C)NC(=O)[C@H](Cc1ccccc1)NC(=O)[C@H](Cc1ccccc1)NC(=O)OCc1ccccc1)C(=O)CCl [Z--Phe-Phe-Ala-LeuCH2 Cl] (Cbz-FFAL-CH2Cl)
- Percent Inhibition (p130^fps): 11%

SMILES: CC(C)CC(NC(=O)C(C)NC(=O)C1CCCN1C(=O)C(Cc1ccccc1)NC(=O)OCc1ccccc1)C(=O)CCl (stereo not drawn) [Z--Phe-Pro-Ala-LeuCH2 Cl] (Cbz-FPAL-CH2Cl; configuration not given here)
- Percent Inhibition (p130^fps): 16%

SMILES: C[C@H](NC(=O)OCc1ccccc1)C(=O)CCl [Z-AlaCH2 Cl]
- % inhibition, EGF Added ([1]; 400 nmol/mg protein): 71%
- EGF Added (pmol 32P incorporated/min/mg protein) [1, 4]: 5.9 pmol^32 P incorporated/min/mg
- % inhibition, No EGF Added ([1]; 400 nmol/mg protein): 44%
- No EGF Added (pmol 32P incorporated/min/mg protein) [1, 5]: 4.1 pmol^32 P incorporated/min/mg

Reference: US4582821A, “Inhibition of cyclic nucleotide independent protein kinases” (E. I. Du Pont de Nemours and Company, priority 1983, dated 1986)
